# In patent publication US20100179188A1, “NITROXIDE RADICAL AS TREATMENT FOR NEURODEGENERATION” (Office of Technology Transfer, NIH, priority 2007, published 2010):
# Tests used:
# TfR1 = test: Western blot of TfR1 in IRP2−/− embryonic fibroblasts; type: cell-based, mouse; details: 0.3 and 1.0 mM, 16 h, with or without FAC
# Method: (§1) Cells: Embryonic fibroblasts of 13-day old embryos were isolated from wild type, IRP1−/− mice and IRP2−/− mice as described in LaVaute et al. supra. Myc-tagged HEK 293 Tet-on cell line, in which IRP2 expression was inducible, was prepared and cultured as described Bourdon et al., Blood Cells Mol Dis, 31, 247-255 (2003). Erythroblasts were harvested from bone marrow and purified as described in Cooperman et al., Blood, 106, 1084-1091 (2005).
# Western blotting and antibodies: Protein analysis was carried out as described in LaVaute et al., supra. Equal amounts of protein (20-40 μg/lane) were separated on 13% SDSPAGE and transferred to nitrocellulose membranes. The membrane was blocked with 5% non-fat milk, 0.1% Triton X-100 in PBS and probed at RT in the same blocking buffer. IRP1 antibody was prepared against purified hIRP1 and used at 1:5000 dilution. L-ferritin antibody was raised in rabbit from L-ferritin protein purified from mouse livers. […]
# (§2) To study the effect of Tempo1 on the IRE-binding activity of IRP1, IRP2−/− embryonic fibroblasts that were maintained in culture supplemented with 0, 0.3 and 1.0 mM Tempo1, with or without ferric ammonium citrate (FAC), for 16 h. […] Quantification was performed with the IQMac (IRP1 activity) or NIH Image (protein levels) program. Error bars represent the standard deviation calculated from the results of two different sets of experiments.
# IRP1 = biological target: T1, IRP1 (Mus musculus, UniProt P28271); test: IRE-binding activity of IRP1 in IRP2−/− embryonic fibroblasts (gel shift); type: cell-based; set-up: Embryonic fibroblasts of 13-day old embryos were isolated from wild type, IRP1−/− mice and IRP2−/− mice; endogenous in cells; host or cells: mouse embryonic fibroblasts (wild type and IRP2−/−); details: 0.3 and 1.0 mM, 16 h
# T1 sequence (P28271 1-889): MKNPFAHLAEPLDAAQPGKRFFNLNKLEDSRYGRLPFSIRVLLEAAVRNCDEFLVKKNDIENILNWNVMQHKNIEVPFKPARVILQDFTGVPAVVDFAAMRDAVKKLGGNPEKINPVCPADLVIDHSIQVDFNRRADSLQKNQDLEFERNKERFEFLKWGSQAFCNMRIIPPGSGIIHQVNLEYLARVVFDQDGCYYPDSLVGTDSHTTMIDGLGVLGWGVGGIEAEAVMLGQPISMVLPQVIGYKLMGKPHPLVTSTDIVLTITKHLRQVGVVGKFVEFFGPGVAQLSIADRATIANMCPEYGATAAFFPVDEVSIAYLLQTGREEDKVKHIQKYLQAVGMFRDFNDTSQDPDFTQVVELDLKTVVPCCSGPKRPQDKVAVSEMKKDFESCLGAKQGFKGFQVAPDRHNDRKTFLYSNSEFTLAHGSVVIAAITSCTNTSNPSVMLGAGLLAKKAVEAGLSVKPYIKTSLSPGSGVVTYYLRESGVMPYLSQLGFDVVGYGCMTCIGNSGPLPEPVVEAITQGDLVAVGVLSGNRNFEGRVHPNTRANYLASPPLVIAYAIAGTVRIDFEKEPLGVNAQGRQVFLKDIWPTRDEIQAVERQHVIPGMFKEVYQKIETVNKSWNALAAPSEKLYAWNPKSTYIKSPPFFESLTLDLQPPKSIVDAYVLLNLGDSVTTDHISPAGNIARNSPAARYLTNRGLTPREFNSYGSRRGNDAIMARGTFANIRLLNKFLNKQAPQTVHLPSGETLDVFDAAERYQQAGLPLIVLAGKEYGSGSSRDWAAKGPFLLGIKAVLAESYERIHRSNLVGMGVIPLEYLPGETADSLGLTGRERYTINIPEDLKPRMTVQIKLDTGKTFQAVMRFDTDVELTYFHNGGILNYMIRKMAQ
# Method: as §1
# RNA mobility shift assays: Gel retardation assays were performed as described in Meyron-Holtz et al., EMBO J, 23, 386-395 (2004). Tissue lysates were prepared in an anaerobic chamber as described above in oxygen-depleted lysis buffer containing 10 mM HEPES (pH 7.2), 3 mM MgC12, 40 mM KCl, 5% glycerol, 0.2% Nonidet P-40, 5 mM DTT, 1 mM AEBSF, 10 μg/ml. Leupeptin and complete TM EDTA free protease inhibitor cocktail (Roche Applied Science, Indiana). […]
# as §2
smiles,measurement,setting,value
CC1(C)CC(O)CC(C)(C)N1[O] [Tempo1],TfR1 levels,TfR1,increased
same,IRE-binding activity of IRP1,IRP1,activate IRP1
